Assay results published in the supplement of paper PMC10307832.

Legend:
Adavosertib + Foretinib = compound: C=CCn1c(=O)c2cnc(Nc3ccc(N4CCN(C)CC4)cc3)nc2n1-c1cccc(C(C)(C)O)n1 [Adavosertib] + COc1cc2c(Oc3ccc(NC(=O)C4(C(=O)Nc5ccc(F)cc5)CC4)cc3F)ccnc2cc1OCCCN1CCOCC1 [Foretinib] (partner 0.25 µM); test: relative viability (nuclei count vs DMSO), 5 days (fraction); higher = more cells survive
In short: (§1)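 A single step with final 0.05% Triton X-100, 1% formaldehyde and 1 ug/ml Hoechst fixed the cells and stained nuclei 5 days after treatment. Lung cancer cell lines in 1536-well plates had been treated by pin tool the day after seeding with one drug alone or a fixed anchor-drug dose plus five library-drug doses (not always all listed) in √10 steps, and nuclei were counted on 4× images. Relative viability is the ratio of nuclei in treated wells to nuclei in vehicle wells, taken as the median of duplicate plates.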

Nelarabine + Tozasertib = compound: COc1nc(N)nc2c1ncn2[C@@H]1O[C@H](CO)[C@@H](O)[C@@H]1O [Nelarabine] + Cc1cc(Nc2cc(N3CCN(C)CC3)nc(Sc3ccc(NC(=O)C4CC4)cc3)n2)n[nH]1 [Tozasertib] (partner 0.1 µM); test: as above
In short: as §1

| Cell Line | relative viability (Adavosertib + Foretinib; first compound 0.01 µM) | relative viability (Adavosertib + Foretinib; first compound 0.03162 µM) | relative viability (Adavosertib + Foretinib; first compound 0.1 µM) | relative viability (Adavosertib + Foretinib; first compound 0.3162 µM) | relative viability (Nelarabine + Tozasertib; first compound 0.01 µM) | relative viability (Nelarabine + Tozasertib; first compound 0.03162 µM) | relative viability (Nelarabine + Tozasertib; first compound 0.1 µM) | relative viability (Nelarabine + Tozasertib; first compound 0.3162 µM) | relative viability (Nelarabine + Tozasertib; first compound 1 µM) |
| --- | --- | --- | --- | --- | --- | --- | --- | --- | --- |
| NCI-H2087 | 1.22 | 1.11 | 1.37 | 1.06 | 0.303 | 0.24 | 0.22 | 0.19 | 0.245 |
| EKVX | 0.743 | 1.15 | 0.755 | 0.748 | 0.463 | 0.476 | 0.449 | 0.372 | 0.395 |
| NCI-H1975 | 0.967 | 0.962 | 0.878 | 0.778 | 0.69 | 0.689 | 1.05 | 0.911 | 0.926 |
| NCI-H520 | 0.784 | 0.81 | 0.743 | 0.703 | 0.574 | 0.315 | 0.429 | 0.457 | 0.429 |
| NCI-H647 | 1.15 | 1.33 | 1.04 | 1.12 | 0.347 | 0.207 | 0.387 | 0.24 | 0.247 |
| NCI-H1755 | 0.881 | 0.893 | 0.912 | 0.918 | 0.683 | 0.524 | 0.561 | 0.645 | 0.557 |
| SK-LU-1 | 0.773 | 0.831 | 0.563 | 0.311 | 0.307 | 0.198 | 0.298 | 0.323 | 0.332 |
| Calu-6 | 0.905 | 0.956 | 0.91 | 0.311 | – | – | – | – | – |
| NCI-H1648 | – | – | – | – | 0.456 | 0.405 | 0.43 | 0.601 | 0.383 |
| NCI-H1623 | 0.863 | 0.863 | 0.854 | 0.933 | 0.46 | 0.341 | 0.601 | 0.45 | 0.406 |
| LXF-289 | 1.01 | 0.973 | 0.973 | 1.03 | 0.222 | 0.234 | 0.173 | 0.232 | 0.233 |
| NCI-H1563 | 0.882 | 0.949 | 1.05 | 0.931 | – | – | – | – | – |
| NCI-H1993 | 0.795 | 0.863 | 0.83 | 0.838 | 0.662 | 0.553 | 0.623 | 0.586 | 0.571 |
| LCLC-97TM1 | 0.847 | 0.906 | 0.994 | 0.881 | 0.259 | 0.148 | 0.192 | 0.2 | 0.234 |
| NCI-H2347 | 0.829 | 0.926 | 0.697 | 0.989 | 0.659 | 0.443 | 0.523 | 0.565 | 0.225 |
| NCI-H522 | – | – | – | – | 0.529 | 0.605 | 0.456 | 0.615 | 0.627 |
| LCLC-103H | 0.922 | 0.794 | 0.871 | 0.517 | 0.674 | 0.358 | 0.373 | 0.479 | 0.47 |
| NCI-H596 | 1.01 | 1.03 | 0.87 | 0.755 | 1.07 | 0.835 | 0.879 | 0.862 | 0.827 |
| NCI-H727 | 0.689 | 1.07 | 0.917 | 0.831 | 0.789 | 0.816 | 0.617 | 0.598 | 0.694 |
| EPLC-272H | 0.674 | 0.681 | 0.591 | 0.247 | 0.219 | 0.2 | 0.287 | 0.295 | 0.253 |

| Cell Line | relative viability (Adavosertib + Foretinib; first compound 0.01 µM) | relative viability (Adavosertib + Foretinib; first compound 0.03162 µM) | relative viability (Adavosertib + Foretinib; first compound 0.1 µM) | relative viability (Adavosertib + Foretinib; first compound 0.3162 µM) | relative viability (Nelarabine + Tozasertib; first compound 0.01 µM) | relative viability (Nelarabine + Tozasertib; first compound 0.03162 µM) | relative viability (Nelarabine + Tozasertib; first compound 0.1 µM) | relative viability (Nelarabine + Tozasertib; first compound 0.3162 µM) | relative viability (Nelarabine + Tozasertib; first compound 1 µM) |
| --- | --- | --- | --- | --- | --- | --- | --- | --- | --- |
| NCI-H2170 | 1.02 | 0.603 | 0.923 | 1.07 | 0.81 | 0.689 | 0.767 | 0.88 | 0.73 |
| NCI-H1355 | 1.01 | 1.02 | 0.975 | 0.946 | 0.521 | 0.483 | 0.478 | 0.539 | 0.577 |
| SK-MES-1 | 1.02 | 0.924 | 0.866 | 0.731 | 1 | 0.89 | 0.944 | 0.924 | 0.937 |
| LOU-NH91 | 0.875 | 0.945 | 0.943 | 0.88 | 0.787 | 0.675 | 0.675 | 0.673 | 0.653 |
| NCI-H2342 | 1.14 | 1.18 | 1.19 | 1.04 | 0.532 | 0.513 | 0.446 | 0.478 | 0.462 |
| HCC-78 | 0.54 | 0.628 | 0.587 | 0.628 | 0.492 | 0.415 | – | 0.384 | 0.401 |
| NCI-H322M | 0.886 | 0.978 | 0.821 | 0.517 | 0.554 | 0.485 | 0.407 | 0.501 | 0.456 |
| HCC-15 | 1.04 | 0.936 | 1.2 | 1.25 | 0.48 | 0.268 | 0.377 | 0.412 | 0.39 |
| A-427 | 0.929 | 1.02 | 1.09 | 0.851 | 0.181 | 0.204 | 0.169 | 0.175 | 0.181 |
| NCI-H2228 | 0.837 | 1.15 | 0.686 | 0.472 | 0.226 | 0.163 | – | 0.245 | 0.214 |
| A549 | 1.04 | 0.984 | 1.24 | 0.838 | – | – | – | – | – |
| CAL-12T | 1.12 | 1.09 | 1.16 | 1.09 | 0.358 | 0.309 | 0.316 | 0.303 | 0.363 |
| NCI-H1793 | 0.633 | 0.599 | 0.644 | 0.508 | 0.316 | 0.317 | 0.328 | 0.327 | 0.352 |
| NCI-H460 | 1.05 | 0.933 | 1.1 | 0.994 | 0.834 | 0.253 | 0.38 | 0.77 | 0.442 |
| NCI-H661 | 1.07 | 1.07 | 1.12 | 0.839 | 0.343 | 0.334 | 0.333 | 0.344 | 0.364 |
| HARA | 0.977 | 0.892 | 0.84 | 0.335 | 0.119 | 0.112 | 0.0991 | 0.0991 | 0.105 |
| NCI-H1437 | 1.2 | 1.35 | 1.27 | 1.25 | 0.466 | 0.353 | 0.488 | 0.427 | 0.41 |
| 201T | 1.28 | 1.14 | – | 1.23 | 1.12 | 0.692 | 0.885 | 1.08 | 0.926 |
| LC-2-ad | 0.823 | 0.995 | 0.958 | 0.889 | 0.464 | 0.418 | 0.414 | 0.468 | 0.439 |
